Assay results as given in PMC6348446 (Journal of Medicinal Chemistry, 2018).
Values belong to the compound of their own block, whether it stands above or below them.

Legend:
A-204 cells = assay: Cell viability/proliferation (cellular ATP, CellTiterGlo) in A-204; type: cell-based; details: Homo sapiens, A204; A-204 (printed A-402); read-out: EC50 (cytotoxicity, cell viability)
Experimental: (§1) A-204 cells (1 × 10^3) were seeded per well of 384-well plates. After overnight incubation, compounds were added to the cells at logarithmic dose series using the HP digital dispenser D300 (Tecan), normalizing for added DMSO. 1 day and 8 days after seeding cellular ATP content was measured using CellTiterGlo (Promega). Measurements after 8 days were divided by the measurement after 1 day (i.e., the T0 plate) to derive fold proliferation. Data were analyzed with GraphPad Prism software to obtain EC50 values.

EOL-1 cells = assay: Cell viability/proliferation (cellular ATP, CellTiterGlo) in EOL-1; type: cell-based; details: Homo sapiens, EOL1; EOL-1, text; read-out: EC50 (cytotoxicity, cell viability)
EOL-1 and A-204 cells = assay: Cell viability/proliferation, ranges stated over EOL-1 and A-204; type: cell-based; details: Homo sapiens; EOL-1 and A-204, text; read-out: EC50 (cell viability), range
Experimental: as §1

[1] = CHI LogD determination (reverse-phase HPLC); type: physicochemical; details: reversed-phase HPLC (ACE Excel 3 SuperC18 column), pH 7.4; read-out: CHI LogD (pH7.4)
Experimental: (§2) removed from both acceptor and donor compartments and mixed with acetonitrile (80 µL) containing an internal standard. The samples were centrifuged (10 min, 5 °C, 3270 g) to sediment precipitated protein and sealed prior to UPLC-MS/MS analysis using a Xevo TQ-S Micro (Waters Corp, USA). Pe was calculated as shown in the below equation: […]
(§3) CA(t) = peak area of compound present in acceptor well at time t = 18000 s Cequi = [CD(t) x VD + CA(t) x VA] / (VD + VA)
(§4) VA = acceptor well volume
(§5) CD(t) = peak area of compound present in donor well at time t = 18000 s Recovery of compound from donor and acceptor wells was calculated and data was only accepted when recovery exceeded 70%.
Using a fast gradient, reverse-phase HPLC method to determine the chromatographic hydrophobicity index (CHI) was determined as described by Camurri and Zaramella (ref. 3) and Valko et al. (ref. 4). Briefly, by plotting the retention time of a set of reference […]
compounds against known CHI values. The CHI value of test compounds was then calculated according to their retention time.
Test compounds were prepared as 0.25 mM solutions in 50:50 acetonitrile:water and analysed by reversed-phase HPLC-UV (wavelength 254 nm) using a ACE Excel 3 SuperC18, 3 µm, 50 x 2.1 mm column with a gradient of aqueous phase (10 mM ammonium acetate, pH 7.4) and mobile phase (acetonitrile).
Intrinsic clearance (Cli) experiments
Test compound (0.5 µM) was incubated with female CD1 mouse or human (mixed gender) liver microsomes (Xenotech LLCTM; 0.5 mg/mL 50mM potassium phosphate buffer, pH7.4) and the reaction initiated with addition of excess NADPH (8 mg/mL 50 mM potassium phosphate buffer, pH7.4). Immediately, at time zero, then at 3, 6, 9, 15 and 30 minutes an aliquot (50 µL) of the incubation mixture was removed and mixed with acetonitrile (100 µL) to stop the reaction. Internal standard was added to all samples, the samples centrifuged to sediment precipitated protein and the plates then sealed prior to […] analysis using […]
a Xevo TQ-S Micro (Waters corporation, USA).
XLfit (IDBS, UK) was used to calculate the exponential decay and consequently the rate constant (k) from the ratio of peak area of test compound to internal standard at each timepoint. The rate of intrinsic clearance (CLi) of each test compound was then calculated using the following calculation:
CLi(mL/min/g liver) = k x V x Microsomal protein yield
Where V (mL/mg protein) is the incubation volume/mg protein added and microsomal protein yield is taken as 52.5 mg protein/ g liver. Verapamil (0.5 µM) was used as a positive control to confirm acceptable assay performance.

[2] = Parallel Artificial Membrane Permeability Assay (PAMPA); type: in vitro ADME
Experimental: Test compound (10 µM) was incubated in pre-warmed plasma at 37 ᵒC (that is buffered to pH 7.4 in ratio of 70:30 plasma to buffer). Immediately, at time zero, then at 30, 60, 120, and 180 min, a 50 µL aliquot of the incubation mixture was removed and mixed with 200 µL acetonitrile containing Donepezil as the internal standard (50 ng/ml) to stop the reaction. The samples were centrifuged to sediment the precipitated protein and the plates then sealed prior to UPLC-MS/MS analysis using a Xevo TQ-S Micro (Waters Corporation, USA).
XLfit (IDBS, UK) was used to calculate the exponential decay and consequently the rate constant (k) from the ratio of peak area of test compound to internal standard at each time point. The half-life was calculated for each test compound from the rate by using the […]
Parallel Artificial Membrane Permeability Assay (PAMPA)
PAMPA was performed using a 96-well pre-coated BD Gentest™ PAMPA plate (BD Biosciences, U.K.). Each well was divided into two chambers; donor and acceptor, separated by a lipid-oil-lipid tri-layer constructed in a porous filter. The effective permeability, Pe, of the compound was measured at pH 7.4. Stock solutions (5 mM) of the compound were prepared in DMSO. The compound was then further diluted to 10 µM in phosphate buffered […]
saline at pH 7.4. […] The compound […]
dissolved in phosphate buffered saline was then added to the donor side of the membrane and phosphate buffered saline without compound was added to the acceptor side. The PAMPA plate was left at room temperature for 5 h. After which time, an aliquot (100 µL) was then […]
as §2, §3, §4, §5
Using a fast gradient, reverse-phase HPLC method to determine the chromatographic hydrophobicity index (CHI) was determined as described by Camurri and Zaramella (ref. 3) and Valko et al. (ref. 4). Briefly, by plotting the retention time of a set of reference

Structure (SMILES): COc1cc(-c2cn(C)c(=O)c3cnccc23)cc(OC)c1CN(C)CC(=O)NCCOCCOCCNc1cccc2c1C(=O)N(C1CCC(=O)NC1=O)C2=O (centres unmarked) [Compound 21, reference compound]
- EC50 (A-204 cells): 90 nM
- EC50 (EOL-1 cells): 5 nM

Structure (SMILES): COc1cc(-c2cn(C)c(=O)c3cnccc23)c(OC)cc1CN(C)C [Compound 1b]
- EC50 (EOL-1 and A-204 cells): 370 to 3550 nM

Structure (SMILES): COc1cc(-c2cn(C)c(=O)c3cnccc23)cc(OC)c1CN(C)C [Compound 1a]
- EC50 (EOL-1 and A-204 cells): 90 to 340 nM

- chromatographic logD [1]: 2
- recovery at 5 h, 10 µM ([2]; PAMPA, pH 7.4): 88%
- Papp at 5 h, 10 µM ([2]; PAMPA, pH 7.4, 5 h, read-out: PAMPA pH 7.4 Pe): 0.002 ×10⁻⁶ cm/s
- PAMPA pH 7.4 HIGH/MED/LOW ([2]; pH 7.4, permeability class): LOW and low cell permeability
Structure (SMILES): COc1cc(-c2cn(C)c(=O)c3cnccc23)cc(OC)c1CN1CCN(CCOCCOc2cc(-c3scnc3C)ccc2CNC(=O)[C@@H]2C[C@@H](O)CN2C(=O)[C@@H](NC(=O)C2(F)CC2)C(C)(C)C)CC1 [Compound 46, (2S,4R)-N-(2-(2-(2-(4-(2,6-Dimethoxy-4-(2-methyl-1-oxo-1,2-dihydro-2,7-naphthyridin-4-yl)benzyl)piperazin-1-yl)ethoxy)ethoxy)-4-(4-methylthiazol-5-yl)benzyl)-1-((S)-2-(1-fluorocyclopropane-1-carboxamido)-3,3-dimethylbutanoyl)-4-hydroxypyrrolidine-2-carboxamide]
